Experimental data published in paper PMC9403976, “Elucidating the path to Plasmodium prolyl-tRNA synthetase inhibitors that overcome halofuginone resistance” (Nature Communications, 2022).
“And” between values parts separate entries of the source, which are not always exact repeats. Equal values may be shown once. Read-outs that look alike come from different tables or passages of the source. Marks after values point to notes of the source that are not given here.

Legend:
P. falciparum Dd2-2D4 = assay: P. falciparum asexual blood stage (ABS) growth assay, SYBR Green, 72 h, wild-type parasites; type: cell-based, Plasmodium falciparum
[1] = test system: halofuginone-induced P. falciparum (elevated proline homeostasis); assay: P. falciparum ABS growth assay, SYBR Green, 72 h, halofuginone-induced parasites; type: cell-based, Plasmodium falciparum; settings: for parasite growth, dose-response point: Halofuginone-Induced (HFG-Induced)
Outline: (§1)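 Dd2-derived erythrocytic-stage parasites at 1% parasitemia and 1% hematocrit in RPMI + 0.5% Albumax were exposed to compounds in triplicate dose-response. Controls were 10 μM dihydroartemisinin (kill) and no-compound wells (growth). Growth was read by SYBR Green 1 fluorescence after 72 h and used to derive EC50.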

[2] = test system: HFGR-I P. falciparum (elevated proline homeostasis and PfcProRS^L482H); assay: P. falciparum ABS growth assay, SYBR Green, 72 h, HFGR-I parasites; type: cell-based, Plasmodium falciparum; settings: for parasite growth, dose-response point: HFGR-I
Outline: as §1

PfcProRS = target: T1, PfcProRS (Plasmodium falciparum, UniProt Q8I5R7); type: binding; settings: for Normalized response, dose-response replicates (SI Fig 14): replicates 1-3
T1 construct: made in house; host or cells: E. coli SoluBL-21
T1 sequence (Q8I5R7 249-746): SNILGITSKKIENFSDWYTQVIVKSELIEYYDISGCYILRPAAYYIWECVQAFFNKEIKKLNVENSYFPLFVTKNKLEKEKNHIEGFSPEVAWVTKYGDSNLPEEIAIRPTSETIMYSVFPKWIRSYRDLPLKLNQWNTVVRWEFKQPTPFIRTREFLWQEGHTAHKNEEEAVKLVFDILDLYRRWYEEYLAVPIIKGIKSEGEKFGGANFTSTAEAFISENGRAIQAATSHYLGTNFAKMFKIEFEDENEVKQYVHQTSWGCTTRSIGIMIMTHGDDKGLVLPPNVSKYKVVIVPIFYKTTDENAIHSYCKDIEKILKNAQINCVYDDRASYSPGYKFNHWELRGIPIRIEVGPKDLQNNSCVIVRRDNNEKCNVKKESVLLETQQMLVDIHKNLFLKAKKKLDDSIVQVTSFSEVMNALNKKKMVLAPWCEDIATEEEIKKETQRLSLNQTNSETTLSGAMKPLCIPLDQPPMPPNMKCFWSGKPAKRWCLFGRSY

HsProRS = HsProRS (Homo sapiens, UniProt P07814); assay: TR-FRET ligand displacement assay with tracer MAT379 (CoraFluor-1-Halo and anti-His6 antibody formats); type: binding; design: made in house; host or cells: E. coli SoluBL-21; settings: for normalized TR-FRET signal (dose-response replicates): SI Fig 17a
Chain of HsProRS (P07814 996-1512): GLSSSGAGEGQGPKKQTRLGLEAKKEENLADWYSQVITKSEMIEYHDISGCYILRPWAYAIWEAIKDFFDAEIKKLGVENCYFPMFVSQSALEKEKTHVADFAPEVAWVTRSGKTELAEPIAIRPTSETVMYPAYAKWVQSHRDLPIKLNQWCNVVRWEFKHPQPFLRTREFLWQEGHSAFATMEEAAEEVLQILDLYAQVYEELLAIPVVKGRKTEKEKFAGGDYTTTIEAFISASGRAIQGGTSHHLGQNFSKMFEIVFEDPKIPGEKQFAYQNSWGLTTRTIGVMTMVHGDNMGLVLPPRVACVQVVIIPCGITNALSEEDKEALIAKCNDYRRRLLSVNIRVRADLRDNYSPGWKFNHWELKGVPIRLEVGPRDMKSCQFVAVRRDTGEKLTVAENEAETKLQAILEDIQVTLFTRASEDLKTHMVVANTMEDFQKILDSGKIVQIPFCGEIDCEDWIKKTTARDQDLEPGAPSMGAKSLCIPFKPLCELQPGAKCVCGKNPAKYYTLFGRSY

[3] = 10 μM, compound had <50% inhibition
[4] = Log[inhibitor] (M) -5.000, series r4-r15

CC(C)(C)OC(=O)N1CCC[C@H]1C(=O)NC1CCN(C(=O)Nc2nccnc2C(=O)NC2Cc3ccccc3C2)CC1 [compound 31]
percent growth at 10 μM, Dd2 wt (P. falciparum Dd2-2D4; [3]): 102%^b
EC50 (P. falciparum Dd2-2D4; Plasmodium falciparum, wildtype (Dd2-2D4), bound given in μM, read-out: Dd2 EC50 wildtype (Dd2-2D4), bound): > 10 µM
% signal at 10 μM, wildtype (Dd2-2D4) (P. falciparum Dd2-2D4; wildtype (Dd2-2D4), 10 μM): 102%
percent growth at 10 μM, Dd2 Halofuginone-induced [1, 3]: 98%^b
parasite growth, dose-response point [1, 4]: 103 and 98 and 92
parasite growth, dose-response point ([1]; Log[inhibitor] (M) -5.301): 107 and 109 and 115
parasite growth, dose-response point ([1]; Log[inhibitor] (M) -5.602): 124 and 110 and 116
parasite growth, dose-response point ([1]; Log[inhibitor] (M) -5.903): 117 and 106 and 104
parasite growth, dose-response point ([1]; Log[inhibitor] (M) -6.204): 111 and 107 and 99
parasite growth, dose-response point ([1]; Log[inhibitor] (M) -6.505): 98 (2×) and 104
parasite growth, dose-response point ([1]; Log[inhibitor] (M) -6.806): 109 and 112 and 103
parasite growth, dose-response point ([1]; Log[inhibitor] (M) -7.107): 105 and 103 and 108
parasite growth, dose-response point ([1]; Log[inhibitor] (M) -7.408): 116 and 109 and 103
parasite growth, dose-response point ([1]; Log[inhibitor] (M) -7.709): 115 and 100 and 119
parasite growth, dose-response point ([1]; Log[inhibitor] (M) -8.010): 104 and 100 and 101
parasite growth, dose-response point ([1]; Log[inhibitor] (M) -8.311): 107 and 102 and 101
EC50 ([1]; Plasmodium falciparum, DD2, halofuginone-induced, bound given in μM, read-out: Dd2 EC50 halofuginone-induced, bound): > 10 µM
% signal at 10 μM, halofuginone-induced ([1]; halofuginone-induced, 10 μM): 97.7%
percent growth at 10 μM, Dd2 HFGR-I [2, 3]: 103%^b
% signal at 10 μM, HFGR1 ([2]; HFGR1, 10 μM): 103%
parasite growth, dose-response point [2, 4]: 106 and 104 and 99
parasite growth, dose-response point ([2]; Log[inhibitor] (M) -5.301): 101 and 100
parasite growth, dose-response point ([2]; Log[inhibitor] (M) -5.602): 105 and 102 and 104
parasite growth, dose-response point ([2]; Log[inhibitor] (M) -5.903): 95 and 102 and 101
parasite growth, dose-response point ([2]; Log[inhibitor] (M) -6.204): 104 and 99 and 98
parasite growth, dose-response point ([2]; Log[inhibitor] (M) -6.505): 99 and 95 and 97
parasite growth, dose-response point ([2]; Log[inhibitor] (M) -6.806): 108 and 106 and 107
parasite growth, dose-response point ([2]; Log[inhibitor] (M) -7.107): 106 and 105
parasite growth, dose-response point ([2]; Log[inhibitor] (M) -7.408): 109 and 104 and 106
parasite growth, dose-response point ([2]; Log[inhibitor] (M) -7.709): 108 and 106
parasite growth, dose-response point ([2]; Log[inhibitor] (M) -8.010): 103 and 105
parasite growth, dose-response point ([2]; Log[inhibitor] (M) -8.311): 108 and 105 and 104
EC50 ([2]; Plasmodium falciparum, DD2, HFGR1, bound given in μM, read-out: Dd2 EC50 HFGR1, bound): > 10 µM
Normalized response, dose-response replicates (SI Fig 14) (PfcProRS; Log[inhibitor] (M) -5.000): 5.64E-01 and 5.99E-01 and 6.18E-01
Normalized response, dose-response replicates (SI Fig 14) (PfcProRS; Log[inhibitor] (M) -5.301): 6.96E-01 and 6.54E-01 and 6.55E-01
Normalized response, dose-response replicates (SI Fig 14) (PfcProRS; Log[inhibitor] (M) -5.601): 8.77E-01 and 8.39E-01 and 9.75E-01
Normalized response, dose-response replicates (SI Fig 14) (PfcProRS; Log[inhibitor] (M) -5.904): 9.20E-01 and 8.45E-01 and 8.88E-01
Normalized response, dose-response replicates (SI Fig 14) (PfcProRS; Log[inhibitor] (M) -6.208): 9.89E-01 and 9.27E-01 and 1.07E+00
Normalized response, dose-response replicates (SI Fig 14) (PfcProRS; Log[inhibitor] (M) -6.509): 1.00E+00 and 9.45E-01 and 8.96E-01
Normalized response, dose-response replicates (SI Fig 14) (PfcProRS; Log[inhibitor] (M) -6.796): 8.17E-01 and 9.17E-01 and 9.69E-01
Normalized response, dose-response replicates (SI Fig 14) (PfcProRS; Log[inhibitor] (M) -7.108): 9.90E-01 and 9.44E-01 and 8.89E-01
Normalized response, dose-response replicates (SI Fig 14) (PfcProRS; Log[inhibitor] (M) -7.409): 9.05E-01 and 8.67E-01 and 8.30E-01
Normalized response, dose-response replicates (SI Fig 14) (PfcProRS; Log[inhibitor] (M) -7.710): 9.25E-01 and 1.08E+00 and 9.24E-01
Normalized response, dose-response replicates (SI Fig 14) (PfcProRS; Log[inhibitor] (M) -8.000): 8.19E-01 and 1.06E+00 and 9.65E-01
Normalized response, dose-response replicates (SI Fig 14) (PfcProRS; Log[inhibitor] (M) -8.301): 1.15E+00 and 1.07E+00 (2×)
Normalized response, dose-response replicates (SI Fig 14) (PfcProRS; Log[inhibitor] (M) -8.602): 1.06E+00 and 1.03E+00 and 1.05E+00
Normalized response, dose-response replicates (SI Fig 14) (PfcProRS; Log[inhibitor] (M) -9.000): 8.95E-01 and 9.81E-01 and 1.04E+00
Normalized response, dose-response replicates (SI Fig 14) (PfcProRS; Log[inhibitor] (M) -9.301): 1.02E+00 and 9.15E-01 and 1.14E+00
PfcProRS -- best Kd (PfcProRS; SI Fig 16a, values on -log scale): 5.701
HsProRS % signal at 10 μM, + 100 μM proline (HsProRS; + 100 μM proline, 10 μM): 59.4%
Kd (HsProRS; HsProRS (KD [nM]) −, absence of substrates, 250 nM MAT379): 5130 nM
Kd (HsProRS; HsProRS KD + 100 μM proline, bound, + 100 μM proline, bound given in μM): > 5090 nM
normalised signal, dose-response point (Fig 4d) (HsProRS; Log[inhibitor] (M) -5.000, series of 31): 4.79E-01 and 4.46E-01
normalised signal, dose-response point (Fig 4d) (HsProRS; Log[inhibitor] (M) -5.286): 6.67E-01 and 6.31E-01
normalised signal, dose-response point (Fig 4d) (HsProRS; Log[inhibitor] (M) -5.574): 7.84E-01 and 7.77E-01
normalised signal, dose-response point (Fig 4d) (HsProRS; Log[inhibitor] (M) -5.862): 8.87E-01 and 8.96E-01
normalised signal, dose-response point (Fig 4d) (HsProRS; Log[inhibitor] (M) -6.151): 9.64E-01 and 9.65E-01
normalised signal, dose-response point (Fig 4d) (HsProRS; Log[inhibitor] (M) -6.428): 9.34E-01 and 9.44E-01
normalised signal, dose-response point (Fig 4d) (HsProRS; Log[inhibitor] (M) -6.729): 9.61E-01 and 9.47E-01
normalised signal, dose-response point (Fig 4d) (HsProRS; Log[inhibitor] (M) -7.006): 9.42E-01 and 8.63E-01
normalised signal, dose-response point (Fig 4d) (HsProRS; Log[inhibitor] (M) -7.295): 9.55E-01 and 9.92E-01
normalised signal, dose-response point (Fig 4d) (HsProRS; Log[inhibitor] (M) -7.585): 1.05E+00 and 9.07E-01
normalised signal, dose-response point (Fig 4d) (HsProRS; Log[inhibitor] (M) -7.875): 9.50E-01 and 9.36E-01
normalised signal, dose-response point (Fig 4d) (HsProRS; Log[inhibitor] (M) -8.135): 9.31E-01 and 9.40E-01
normalised signal, dose-response point (Fig 4d) (HsProRS; Log[inhibitor] (M) -8.477): 9.84E-01 and 9.46E-01
normalised signal, dose-response point (Fig 4d) (HsProRS; Log[inhibitor] (M) -8.699): 8.68E-01 and 9.88E-01
normalised signal, dose-response point (Fig 4d) (HsProRS; Log[inhibitor] (M) -9.176): 1.01E+00 and 1.00E+00
normalised signal, dose-response point (Fig 4d) (HsProRS; Log[inhibitor] (M) -9.363): 9.70E-01 and 9.49E-01
normalized TR-FRET signal (dose-response replicates) (HsProRS; Log[inhibitor] (M) -5.000): 3.75E-01 and 3.29E-01 and 2.94E-01
normalized TR-FRET signal (dose-response replicates) (HsProRS; Log[inhibitor] (M) -5.301): 5.13E-01 and 4.93E-01 and 4.68E-01
normalized TR-FRET signal (dose-response replicates) (HsProRS; Log[inhibitor] (M) -5.601): 7.38E-01 and 6.61E-01 and 6.36E-01
normalized TR-FRET signal (dose-response replicates) (HsProRS; Log[inhibitor] (M) -5.904): 7.87E-01 and 7.39E-01 and 7.57E-01
normalized TR-FRET signal (dose-response replicates) (HsProRS; Log[inhibitor] (M) -6.208): 8.48E-01 and 8.27E-01 and 8.24E-01
normalized TR-FRET signal (dose-response replicates) (HsProRS; Log[inhibitor] (M) -6.509): 8.55E-01 and 8.71E-01 and 8.75E-01
normalized TR-FRET signal (dose-response replicates) (HsProRS; Log[inhibitor] (M) -6.796): 8.61E-01 and 8.99E-01 and 9.13E-01
normalized TR-FRET signal (dose-response replicates) (HsProRS; Log[inhibitor] (M) -7.108): 8.48E-01 and 8.44E-01 and 8.72E-01
normalized TR-FRET signal (dose-response replicates) (HsProRS; Log[inhibitor] (M) -7.409): 9.07E-01 and 8.89E-01 and 8.65E-01
normalized TR-FRET signal (dose-response replicates) (HsProRS; Log[inhibitor] (M) -7.710): 8.96E-01 and 8.93E-01 and 8.29E-01
normalized TR-FRET signal (dose-response replicates) (HsProRS; Log[inhibitor] (M) -8.000): 9.41E-01 and 8.72E-01 and 9.37E-01
normalized TR-FRET signal (dose-response replicates) (HsProRS; Log[inhibitor] (M) -8.301): 8.90E-01 (2×) and 9.30E-01
normalized TR-FRET signal (dose-response replicates) (HsProRS; Log[inhibitor] (M) -8.602): 9.13E-01 and 9.30E-01 and 9.15E-01
normalized TR-FRET signal (dose-response replicates) (HsProRS; Log[inhibitor] (M) -9.000): 9.52E-01 and 8.88E-01 and 9.53E-01
normalized TR-FRET signal (dose-response replicates) (HsProRS; Log[inhibitor] (M) -9.301): 9.64E-01 and 9.01E-01 and 8.76E-01
